The values below come from ChEMBL document CHEMBL1201862, “PubChem BioAssay data set” (2004).

The structures appear in SMILES notation. Several values for one entry are separate records, joined by “and”; a condition that tells them apart may be missing. Identical values can stand only once. Activity calls are given as the source filed them. Some results are limits rather than exact numbers.

The target in experiment [1] is T1, Delta-type opioid receptor (Homo sapiens, UniProt P41143). Put plainly: delta opioid receptor blockers – image-based, SAR follow-up (AID 2357). The experiment is classed as functional.
T1 sequence (P41143 whole entry): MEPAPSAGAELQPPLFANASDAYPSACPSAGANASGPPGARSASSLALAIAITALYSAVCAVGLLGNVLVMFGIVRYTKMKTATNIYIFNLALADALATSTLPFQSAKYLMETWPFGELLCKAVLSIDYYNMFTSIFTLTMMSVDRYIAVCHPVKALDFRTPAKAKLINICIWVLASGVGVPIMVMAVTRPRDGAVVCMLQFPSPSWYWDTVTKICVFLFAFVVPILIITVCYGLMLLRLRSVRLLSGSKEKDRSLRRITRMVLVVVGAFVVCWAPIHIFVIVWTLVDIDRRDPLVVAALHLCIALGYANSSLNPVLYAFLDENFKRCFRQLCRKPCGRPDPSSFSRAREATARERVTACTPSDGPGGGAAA
The target in experiment [2] is Tyrosine-protein phosphatase non-receptor type 7 (Homo sapiens, UniProt P35236). Kind of experiment: SAR analysis of chemical inhibitors of HePTP using a Fluorescent assay - Set 2. [Related pubchem assays (depositor defined):AID1059, AID1077, AID1661, AID2085, AID521]. The experiment is classed as functional.
Chain of Tyrosine-protein phosphatase non-receptor type 7 (P35236 whole entry): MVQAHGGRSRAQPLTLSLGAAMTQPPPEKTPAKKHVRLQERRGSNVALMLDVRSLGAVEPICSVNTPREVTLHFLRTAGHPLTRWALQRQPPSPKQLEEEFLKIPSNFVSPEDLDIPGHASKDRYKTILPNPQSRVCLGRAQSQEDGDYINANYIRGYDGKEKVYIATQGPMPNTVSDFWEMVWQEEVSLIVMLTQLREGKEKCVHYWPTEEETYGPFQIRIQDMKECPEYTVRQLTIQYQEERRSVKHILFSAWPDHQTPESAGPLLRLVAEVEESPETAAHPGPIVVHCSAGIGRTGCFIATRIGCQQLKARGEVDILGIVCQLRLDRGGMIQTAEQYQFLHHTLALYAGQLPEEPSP
In experiment [3] the target is T2, Mu-type opioid receptor (Homo sapiens, UniProt P35372). Kind of experiment: mu opioid receptor activators, image-based, SAR follow-up (AID 2352). It counts as functional.
T2 sequence (P35372 whole entry): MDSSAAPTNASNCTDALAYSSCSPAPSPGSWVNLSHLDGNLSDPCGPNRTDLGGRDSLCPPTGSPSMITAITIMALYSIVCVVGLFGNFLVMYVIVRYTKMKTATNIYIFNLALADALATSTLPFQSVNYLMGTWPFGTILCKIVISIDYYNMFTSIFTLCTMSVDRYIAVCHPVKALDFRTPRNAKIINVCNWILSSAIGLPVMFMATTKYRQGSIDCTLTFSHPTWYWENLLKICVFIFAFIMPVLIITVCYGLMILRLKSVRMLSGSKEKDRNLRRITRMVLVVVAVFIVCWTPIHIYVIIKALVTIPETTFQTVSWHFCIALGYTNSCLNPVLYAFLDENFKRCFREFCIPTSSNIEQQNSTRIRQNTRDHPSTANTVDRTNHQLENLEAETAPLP
Experiment [4] addresses T3, Kappa-type opioid receptor (Homo sapiens, UniProt P41145). Put plainly: kappa opioid receptor blockers, cell-based, luminescence, beta-arrestin, SAR follow-up (AID 2285). The experiment is classed as functional.
Experiment [5] has as its target T2, Mu-type opioid receptor. Put plainly: mu opioid receptor blockers – image-based, SAR follow-up (AID 2420).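 Note: compounds added before stimulation of receptor with agonist DAMGO.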 The experiment is classed as functional.
Experiment [6] concerns the target T3, Kappa-type opioid receptor. Kind of experiment: kappa opioid receptor activation potency – imaging, image-based, SAR follow-up (AID 2359). The experiment is classed as functional.
Experiment [7] has as its target Dual specificity protein phosphatase 3 (Homo sapiens, UniProt P51452). Put plainly: SAR VHR1 Fluorescent Assay for In Vitro dose response studies Set 2. [Related pubchem assays (depositor defined):AID1654, AID1661, AID1878]. The experiment is classed as functional.
Experiment [8] addresses T1, Delta-type opioid receptor. Put plainly: DOR agonists, SAR follow-up, image-based (AID 2370). The experiment is classed as functional.
In experiment [9] the target is T3, Kappa-type opioid receptor. Kind of experiment: kappa opioid receptor blockers, image-based, SAR follow-up (AID 2348). The experiment is classed as functional.
In experiment [10] the target is T3, Kappa-type opioid receptor. The experiment is classed as functional.
A further experiment has as its target Beta-galactosidase (Escherichia coli, UniProt Q8VNN2). The experiment is classed as functional.
Experiment [11] has as its target T2, Mu-type opioid receptor. Kind of experiment: SAR Analysis of Antagonists of the MOR Receptor using an Image-Based Assay - Set 3. [Related pubchem assays (depositor defined):AID1777, AID1785, AID1786, AID1966, AID2133, AID2136, AID2284, AID2285, AID2420]. The experiment is classed as functional.
The target in experiment [12] is T2, Mu-type opioid receptor. Put plainly: HTS Image-Based Screen for Agonists of the MOR Receptor. [Related pubchem assays (depositor defined):AID1777, AID1785, AID1786, AID2133]. It counts as functional.
Experiment [13] has as its target T3, Kappa-type opioid receptor. Put plainly: SAR analysis of small molecule antagonists of the kappa opioid receptor via a luminescent beta-arrestin assay - Set 3. [Related pubchem assays (depositor defined):AID1777, AID1778, AID1785, AID1786, AID1966, AID2133, AID2136, AID2285, AID2495]. It counts as functional.
The target of experiment [14] is T1, Delta-type opioid receptor. Put plainly: SAR Analysis of Antagonists of the DOR Receptor using an Image-Based Assay - Set 3. [Related pubchem assays (depositor defined):AID1777, AID1785]. It counts as functional.
In experiment [15] the target is T1, Delta-type opioid receptor. Put plainly: HTS Image-Based Screen for Antagonists of the DOR Receptor. [Related pubchem assays (depositor defined):AID1777, AID1785, AID1786, AID2133]. The experiment is classed as functional.
Experiment [16] concerns the target T3, Kappa-type opioid receptor. The experiment is classed as functional. The source holds these as a separate data set.
Experiment [17] has as its target T3, Kappa-type opioid receptor. Kind of experiment: SAR analysis of Antagonists of the Kappa Opioid Receptor (KOR) using an Image-Based Assay - Set 4. [Related pubchem assays (depositor defined):AID1777, AID1785]. It counts as functional.
Experiment [18] addresses T3, Kappa-type opioid receptor. Kind of experiment: SAR analysis of Antagonists of the Kappa Opioid Receptor (KOR) using an Image-Based Assay - Set 3. [Related pubchem assays (depositor defined):AID1777, AID1785]. The experiment is classed as functional.
The target in experiment [19] is T1, Delta-type opioid receptor. Put plainly: HTS Image-Based Screen for Agonists of the DOR Receptor. [Related pubchem assays (depositor defined):AID1777, AID1786, AID2133]. It counts as functional.
The target of experiment [20] is G-protein coupled receptor 55 (Homo sapiens, UniProt Q9Y2T6). Kind of experiment: selective activators of receptor GPR55 – imaging, U2OS cells, beta-arrestin-GFP redistribution, primary screen (AID 1961). The experiment is classed as functional.
Chain of G-protein coupled receptor 55 (Q9Y2T6 whole entry): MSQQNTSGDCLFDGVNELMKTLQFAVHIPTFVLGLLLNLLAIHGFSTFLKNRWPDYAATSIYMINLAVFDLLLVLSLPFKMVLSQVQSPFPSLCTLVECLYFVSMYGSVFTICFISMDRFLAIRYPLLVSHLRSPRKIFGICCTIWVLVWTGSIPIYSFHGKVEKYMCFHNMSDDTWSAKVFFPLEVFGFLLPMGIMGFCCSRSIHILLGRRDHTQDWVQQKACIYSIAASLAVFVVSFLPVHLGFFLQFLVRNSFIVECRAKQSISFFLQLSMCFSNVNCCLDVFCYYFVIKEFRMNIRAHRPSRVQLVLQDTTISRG
The nature of experiment [21]: THP-1 cell cytotoxicity, dose response, cytotoxicity control for non-replicating M. tuberculosis project (AID 489025). It counts as functional.
A short description of experiment [22]: Vero E6 cell cytotoxicity, dose response, cytotoxicity control for non-replicating M. tuberculosis project, secondary assay (AID 492998). It counts as functional, VeroE6. To be noted: Vero C1008.
Experiment [23] has as its system BJ. Kind of experiment: growth inhibition of engineered Ras-driven BJ cells – cell-based, alamar blue fluorescence, cherrypicked samples, dose response (AID 2631).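 Note: confirmatory dose-response assay in RAS-dependent BJ fibroblasts engineered with TERT, LT and ST, with cytotoxicity read by fluorescence.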 It counts as functional. The conditions noted are these: Homo sapiens. A general note: Alamar Blue is a resazurin reagent that responds to reducing activity.
Experiment [24] can be described thus: DRD fibroblast viability loss – cell-based, non-viral oncogenic, luminescence, dose response (AID 1934). To be noted: Homo sapiens. The experiment is classed as functional.
The subject of the next experiment is Vero. Put plainly: cells. The experiment is classed as functional. The conditions noted are these: Chlorocebus sabaeus.
A short description of experiment [25]: cells. It counts as functional, cell-based.
In another experiment the test system is INS1. Kind of experiment: INS-1E survival protection against cytokine death – cell-based, luminescence, retest, dose response (AID 449756).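 Note: cell death triggered by IL-1 beta plus TNF-alpha plus IFN-gamma mixture; protective hits raise ATP signal compared with cytokine alone wells.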 To be noted: Rattus norvegicus. The experiment is classed as functional.
Experiment [26] deals with BJ. Kind of experiment: cells. The experiment is classed as functional, cell-based. To be noted: Homo sapiens.
A short description of experiment [27]: cells. It counts as functional, cell-based. The source holds these as a separate data set.
The nature of experiment [28]: HepG2 cell cytotoxicity, dose response, cytotoxicity control for non-replicating M. tuberculosis project (AID 489018). To be noted: Mycobacterium tuberculosis. The experiment is classed as functional.
The subject of a further experiment is Streptococcus. Kind of experiment: GAS UMAA2166 growth inhibition – luminescence, BacTiterGlo, counter-screen for streptokinase expression inhibitor project, dose response (AID 1915).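 Note: potency for reduction of bacterial viability or growth.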 The experiment is classed as functional, organism-based.
The nature of experiment [29]: cells. It counts as functional.
Experiment [30] deals with Streptococcus sp. 'group A'. Kind of experiment: Streptococcus pyogenes SK(-)GAS viability under kanamycin – luminescence, BacTiterGlo, confirmation, counter-screen for streptokinase expression inhibitor project, dose response (AID 1900). It counts as functional, organism-based.
For experiment [31], the system named is BJ. Kind of experiment: BJ-TERT fibroblast viability loss – cell-based, RAS-independent, luminescence, dose response (AID 1933). The experiment is classed as functional. The conditions noted are these: Homo sapiens.
The target of experiment [32] is T4, Microphthalmia-associated transcription factor (Homo sapiens, UniProt O75030).
T4 sequence (O75030 whole entry): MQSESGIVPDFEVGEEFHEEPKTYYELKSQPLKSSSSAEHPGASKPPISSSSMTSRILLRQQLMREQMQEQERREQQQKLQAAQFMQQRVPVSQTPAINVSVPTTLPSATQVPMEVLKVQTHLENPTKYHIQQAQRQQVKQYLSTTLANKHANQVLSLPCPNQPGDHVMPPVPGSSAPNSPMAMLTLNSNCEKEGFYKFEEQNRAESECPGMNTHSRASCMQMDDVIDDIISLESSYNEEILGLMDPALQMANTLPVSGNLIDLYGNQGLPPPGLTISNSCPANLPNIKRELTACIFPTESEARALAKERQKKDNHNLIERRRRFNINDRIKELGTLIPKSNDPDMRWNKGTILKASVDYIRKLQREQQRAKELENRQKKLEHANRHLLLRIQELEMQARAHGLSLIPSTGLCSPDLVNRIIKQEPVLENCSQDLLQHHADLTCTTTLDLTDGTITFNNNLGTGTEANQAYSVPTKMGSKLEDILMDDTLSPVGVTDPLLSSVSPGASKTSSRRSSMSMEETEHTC
Kind of experiment: reducers of TRPM1 reporter luminescence, concentration series – cell-based, SK-MEL-5, cherry-picked, set 3, MITF inhibitor project, dose response (AID 493073).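 Note: SK-MEL-5 melanoma cells with luciferase driven by the MITF target TRPM1 promoter.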 It counts as functional.

Experiment [33] has as its system BJ. Put plainly: BJ-TERT-LT-ST fibroblast viability loss – cell-based, RAS-independent, luminescence, dose response (AID 1935).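 Note: BJ fibroblasts immortalized with TERT plus LT and ST oncogenes.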 The conditions noted are these: Homo sapiens. It counts as functional.

T3 sequence (P41145 whole entry): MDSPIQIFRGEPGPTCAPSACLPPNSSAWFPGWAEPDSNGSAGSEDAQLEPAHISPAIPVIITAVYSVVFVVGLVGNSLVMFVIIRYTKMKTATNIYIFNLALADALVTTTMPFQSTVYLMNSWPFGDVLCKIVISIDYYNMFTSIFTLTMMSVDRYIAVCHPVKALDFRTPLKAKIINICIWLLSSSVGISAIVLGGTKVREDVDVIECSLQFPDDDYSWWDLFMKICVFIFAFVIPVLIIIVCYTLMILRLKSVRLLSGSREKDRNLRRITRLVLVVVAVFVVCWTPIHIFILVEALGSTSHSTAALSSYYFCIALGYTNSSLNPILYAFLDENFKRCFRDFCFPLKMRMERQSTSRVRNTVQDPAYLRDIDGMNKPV
Chain of Dual specificity protein phosphatase 3 (P51452 whole entry): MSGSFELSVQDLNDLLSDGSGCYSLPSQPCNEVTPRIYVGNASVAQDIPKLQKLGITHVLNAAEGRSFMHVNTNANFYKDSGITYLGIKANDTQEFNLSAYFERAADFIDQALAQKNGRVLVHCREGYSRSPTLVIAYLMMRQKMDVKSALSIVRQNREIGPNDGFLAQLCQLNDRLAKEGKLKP
Chain of Beta-galactosidase (Q8VNN2 whole entry): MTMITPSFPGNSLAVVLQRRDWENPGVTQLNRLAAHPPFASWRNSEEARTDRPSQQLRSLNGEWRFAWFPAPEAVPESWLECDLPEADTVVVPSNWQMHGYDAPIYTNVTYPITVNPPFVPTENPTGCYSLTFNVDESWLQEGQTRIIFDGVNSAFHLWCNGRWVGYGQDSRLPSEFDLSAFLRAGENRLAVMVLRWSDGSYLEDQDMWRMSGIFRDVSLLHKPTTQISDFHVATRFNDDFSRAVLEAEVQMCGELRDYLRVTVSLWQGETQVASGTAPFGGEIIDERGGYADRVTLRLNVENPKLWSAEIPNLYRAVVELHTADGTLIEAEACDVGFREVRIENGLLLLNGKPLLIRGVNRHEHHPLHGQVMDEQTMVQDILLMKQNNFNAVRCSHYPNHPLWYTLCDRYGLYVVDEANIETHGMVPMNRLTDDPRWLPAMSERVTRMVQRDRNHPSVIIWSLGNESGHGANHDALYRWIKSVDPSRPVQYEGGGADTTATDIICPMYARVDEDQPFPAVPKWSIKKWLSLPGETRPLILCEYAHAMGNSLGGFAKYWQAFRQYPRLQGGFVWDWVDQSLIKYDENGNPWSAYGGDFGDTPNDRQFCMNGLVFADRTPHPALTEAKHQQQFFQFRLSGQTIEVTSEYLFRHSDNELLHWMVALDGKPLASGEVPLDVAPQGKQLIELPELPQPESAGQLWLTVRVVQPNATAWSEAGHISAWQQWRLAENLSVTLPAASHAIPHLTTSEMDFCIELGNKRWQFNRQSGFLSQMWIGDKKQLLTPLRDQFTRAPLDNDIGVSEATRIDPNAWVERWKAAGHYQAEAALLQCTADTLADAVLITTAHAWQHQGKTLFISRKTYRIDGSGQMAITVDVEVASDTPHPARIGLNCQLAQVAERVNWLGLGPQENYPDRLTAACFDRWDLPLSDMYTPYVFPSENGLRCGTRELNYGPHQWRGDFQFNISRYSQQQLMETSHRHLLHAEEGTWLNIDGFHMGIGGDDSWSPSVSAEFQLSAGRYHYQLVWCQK

Regarding `O=C(NC(NC(=S)Nc1ccccc1)C(Cl)(Cl)Cl)OCc1ccccc1` (centres undefined), the IC50 – broadly, the midpoint of a concentration-inhibition curve – in [1] is > 32 µM (inactive); in [2] it was > 100 µM (inactive); in experiment [4], > 10 µM (inactive); on Mu-type opioid receptor [5], > 32 µM (inactive); in experiment [7], > 100 µM (inactive); in experiment [9], 17.6 µM (inactive). Also, the EC50 (at Mu-type opioid receptor [3]; in experiment [6]; in [8]) was > 32 µM (inactive) in each case.

As to `COc1ccc(N2CCN(CCCNC(=O)Cn3c(=O)c4cccn4c4cccnc43)CC2)cc1`, the IC50 was > 32 µM (inactive) in experiment [1]; 2.17 µM (active) in experiment [10]; > 32 µM (inactive) on Mu-type opioid receptor [11]; 1.07 µM (active) and 3.05 µM (active) in [13]; > 32 µM (inactive) in experiment [14]; > 32 µM (inactive) in [15]. The IC50 is 1.32 µM in experiment [16]; 1.67 µM (active) in [4]; > 32 µM (inactive) on Mu-type opioid receptor [5]; 0.205 µM (active) in [17]; 4.14 µM (active) in experiment [9]; 243 nM (active) and 670 nM (active) in experiment [18]. Further, the EC50 (commonly the concentration that produces a half-maximal response) is > 31.5 µM (inactive) on Beta-galactosidase; > 32 µM (inactive) at Mu-type opioid receptor [12]; > 32 µM (inactive) at Mu-type opioid receptor [3]; > 32 µM (inactive) in [6]; > 32 µM (inactive) in experiment [8]; > 32 µM (inactive) in experiment [19].

For `CN1CCN(c2nc(Nc3ccccc3)nc(N)c2[N+](=O)[O-])CC1`, the EC50 in experiment [20] was 10.7 µM (inactive).

Consider `COc1cccc(C(=O)N/N=C(/c2ccccc2)c2ccccn2)c1`, for which the CC50 (usually the concentration at which the toxic effect on the cells reaches its halfway point) in experiment [21] was 0.844 µM (active); in [22], 1.98 µM (active); in the experiment on Vero, 2.36 µM (active); in experiment [28], 11.3 µM (active). Besides, the EC50 in the experiment on BJ [23] was 1.45 µM (active); in experiment [24] it was 2.82 µM (active); in “cells [25]” it was 9.7 µM (active); in the experiment with BJ [26], 4.58 µM (active); in “cells [27]” it was > 350 µM (not active); with Streptococcus it was 18 µM (active). Besides, the results for the EC50 (in experiment [30]; in the experiment on BJ [31]; with BJ [33]) were 14.2 µM (active), 2.69 µM (active) and 3.26 µM (active), respectively. In addition, the AC50 (as a rule, the midpoint of the concentration-response curve, whichever way the signal moves) is 0.745 µM (active) with INS1 and 5.8 µM (active) in [32]. The IC50 in “cells [29]” was 2.04 µM (active).
